Results reported in article PMC8386742, “Discovery of N-aryl sulphonamide-quinazoline derivatives as anti-gastric cancer agents in vitro and in vivo via activating the Hippo signalling pathway” (Journal of Enzyme Inhibition and Medicinal Chemistry, 2021).

Legend:
PC-3 cells = assay: MTT antiproliferative assay, PC-3 cells; format: cell-based, human; details: Homo sapiens, PC-3, exposure for 48 h
Procedure: (§1) The in vitro antiproliferative activities of new target compounds 6a–6g, 9a–9i, 10a–10j, 11a–11j, and 14a–14d were evaluated against four human cancer cell lines (MGC-803, PC-3, HCT-116, and MCF-7) using MTT assay and 5-FU as a positive drug. The following Tables 1–[4] depicted the results of in vitro antiproliferative activity.
(§2) Cell lines used were cultured in humidified incubator in a humidified atmosphere of 5% CO2 and 95% air. The RPMI-1640 medium was supplemented with 10% foetal bovine serum, penicillin (100 U/ml) and streptomycin (0.1 mg/ml).
(§3) Cell lines were seeded into 96-well plates and incubated for 24 h. Then cells were treated with different concentrations of compounds. And after another 48 h, MTT reagent (20 μL per well) was added to each well and then incubated at 37 °C for 4 h. After the suspension was discarded, formazan was then dissolved with DMSO. Absorbencies of formazan solution were measured at 490 nm. The IC50 values of tested compounds were calculated by SPSS version 17.0.

MCF-7 cells = assay: MTT antiproliferative assay, MCF-7 cells; format: cell-based, human; details: Homo sapiens, MCF7, 48 h, exposure for 48 h
Procedure: as §1, §2, §3

HCT-116 cells = assay: MTT antiproliferative assay, HCT-116 cells; format: cell-based, human; details: Homo sapiens, HCT-116, 48 h, exposure for 48 h
Procedure: as §1, §2, §3

MGC-803 cells = assay: MTT antiproliferative assay, MGC-803 cells; format: cell-based, human; details: exposure for 48 h
Procedure: as §1, §2, §3

| Structure (SMILES) | IC50 (PC-3 cells) [µM] | IC50 (MCF-7 cells) [µM] | IC50 (HCT-116 cells) [µM] | melting point [°C] | IC50 (MGC-803 cells; Homo sapiens, MGC-803, 48 h) [µM] | IC50 (MGC-803 cells) [µM] |
| --- | --- | --- | --- | --- | --- | --- |
| COc1ccc(CN(c2cc(OC)c(OC)c(OC)c2)S(=O)(=O)c2ccc(F)cc2)cc1 [Compound 6a, 4-Fluoro-N-(4-methoxybenzyl)-N-(3,4,5-trimethoxyphenyl) benzene-sulphonamide] | 18.8 ± 0.31 | > 40 | 16.7 ± 1.03 | 156 to 157 | 6.62 ± 0.82 | – |
| COc1ccc(CN(c2cc(OC)c(OC)c(OC)c2)S(=O)(=O)c2ccc(Cl)cc2)cc1 [Compound 6b, 4-Chloro-N-(4-methoxybenzyl)-N-(3,4,5-trimethoxyphenyl) benzene-sulphonamide] | > 40 | > 40 | > 40 | 166 to 167 | > 40 | – |
| COc1ccc(CN(c2cc(OC)c(OC)c(OC)c2)S(=O)(=O)c2ccc(C)cc2)cc1 [Compound 6c] | 8.81 ± 0.98 | 11.2 ± 1.02 | 6.18 ± 0.61 | – | 4.32 ± 0.65 | – |
| COc1ccc(CN(c2cc(OC)c(OC)c(OC)c2)S(=O)(=O)c2ccccc2)cc1 [Compound 6d] | > 40 | > 40 | > 40 | – | > 40 | – |
| COc1ccc(CN(c2cc(OC)c(OC)c(OC)c2)S(=O)(=O)c2ccc(OC)cc2)cc1 [Compound 6e, 4-Methoxy-N-(4-methoxybenzyl)-N-(3,4,5-trimethoxyphenyl) benzene-sulphonamide] | 4.01 ± 1.67 | 7.68 ± 1.82 | 3.48 ± 1.22 | 179 to 180 | 2.86 ± 1.08 | – |
| COc1ccc(CN(c2cc(OC)c(OC)c(OC)c2)S(=O)(=O)c2cccs2)cc1 [Compound 6f, N-(4-methoxybenzyl)-N-(3,4,5-trimethoxyphenyl) thiophene-2-sulphonamide] | 38.7 ± 2.87 | 26.1 ± 1.87 | 38.1 ± 2.64 | – | 28.3 ± 2.86 | – |
| COc1ccc(CN(c2cc(OC)c(OC)c(OC)c2)S(=O)(=O)c2cccnc2)cc1 [Compound 6g, N-(4-methoxybenzyl)-N-(3,4,5-trimethoxyphenyl) pyridine-3-sulphonamide] | 16.9 ± 1.58 | > 40 | > 40 | 162 to 163 | 38.2 ± 1.55 | – |
| COc1ccc(S(=O)(=O)N(Cc2ccccc2)c2cc(OC)c(OC)c(OC)c2)cc1 [Compound 9a, N-benzyl-4-methoxy-N-(3,4,5-trimethoxyphenyl) benzene-sulfonamide] | 16.2 ± 1.06 | 24.5 ± 0.61 | 18.8 ± 1.72 | 161 to 162 | 8.57 ± 1.62 | – |
| COc1ccc(S(=O)(=O)N(Cc2ccc(Cl)cc2)c2cc(OC)c(OC)c(OC)c2)cc1 [Compound 9b, N-(4-chlorobenzyl)-4-methoxy-N-(3,4,5-trimethoxyphenyl) benzene-sulphonamide] | 36.1 ± 0.01 | 23.4 ± 1.53 | 23 ± 5.25 | 172 to 173 | 19.2 ± 1.07 | – |
| COc1ccc(S(=O)(=O)N(Cc2ccc(Br)cc2)c2cc(OC)c(OC)c(OC)c2)cc1 [Compound 9c, N-(4-bromobenzyl)-4-methoxy-N-(3,4,5-trimethoxyphenyl) benzene-sulphonamide] | 28 ± 2.76 | 33.8 ± 1.39 | > 50 | 187 to 188 | 31.1 ± 0.79 | – |
| COc1ccc(S(=O)(=O)N(Cc2ccc(C)cc2)c2cc(OC)c(OC)c(OC)c2)cc1 [Compound 9d, 4-Methoxy-N-(4-methylbenzyl)-N-(3,4,5-trimethoxyphenyl) benzene-sulphonamide] | 15.6 ± 1.57 | 41.8 ± 0.43 | 11.9 ± 2.26 | 164 to 165 | 5.83 ± 1.75 | – |
| COc1ccc(S(=O)(=O)N(Cc2ccc(OC)c(OC)c2)c2cc(OC)c(OC)c(OC)c2)cc1 [Compound 9e, N-(3,4-dimethoxybenzyl)-4-methoxy-N-(3,4,5-trimethoxyphenyl) benzene-sulphonamide] | 10.2 ± 0.52 | 22.9 ± 1.82 | 8.6 ± 2.85 | 136 to 137 | 7.92 ± 2.26 | – |
| COc1ccc(S(=O)(=O)N(Cc2cccnc2)c2cc(OC)c(OC)c(OC)c2)cc1 [Compound 9f, 4-Methoxy-N-(pyridin-3-ylmethyl)-N-(3,4,5-trimethoxyphenyl) benzene-sulphonamide] | 11.3 ± 1.11 | 6.31 ± 1.11 | 6.92 ± 0.79 | 158 to 159 | 1.31 ± 0.08 | – |
| COc1ccc(S(=O)(=O)N(Cc2c(C)noc2C)c2cc(OC)c(OC)c(OC)c2)cc1 [Compound 9h, N-((3,5-dimethylisoxazol-4-yl)methyl)-4-methoxy-N-(3,4,5-trimethoxyphenyl) benzene-sulfonamide] | 8.28 ± 3.4 | 11.5 ± 1.03 | 12.1 ± 0.85 | – | 5.48 ± 0.58 | – |
| COc1cc(N(Cc2nc(C)c3ccccc3n2)S(=O)(=O)c2ccccc2)cc(OC)c1OC [Compound 10a, N-((4-methylquinazolin-2-yl)methyl)-N-(3,4,5-trimethoxyphenyl) benzene-sulphonamide] | 28.2 ± 2.12 | > 50 | 16.7 ± 1.03 | 178 to 179 | 6.62 ± 0.82 | – |
| COc1cc(N(Cc2nc(C)c3ccccc3n2)S(=O)(=O)c2ccc(F)cc2)cc(OC)c1OC [Compound 10b, 4-Fluoro-N-((4-methylquinazolin-2-yl)methyl)-N-(3,4,5-trimethoxyphenyl) benzene-sulfonamide] | 4.72 ± 1.02 | 5.46 ± 0.87 | 3.84 ± 0.14 | 162 to 163 | 0.92 ± 1.07 | – |
| COc1cc(N(Cc2nc(C)c3ccccc3n2)S(=O)(=O)c2ccc(Br)cc2)cc(OC)c1OC [Compound 10c, 4-Bromo-N-((4-methylquinazolin-2-yl)methyl)-N-(3,4,5-trimethoxyphenyl) benzene-sulfonamide] | 1.81 ± 0.26 | 1.4 ± 0.25 | 1.49 ± 0.22 | 170 to 171 | 0.82 ± 0.11 | – |
| COc1cc(N(Cc2nc(C)c3ccccc3n2)S(=O)(=O)c2ccccc2Cl)cc(OC)c1OC [Compound 10d, 2-Chloro-N-((4-methylquinazolin-2-yl)methyl)-N-(3,4,5-trimethoxyphenyl) benzene-sulfonamide] | > 50 | 22.1 ± 0.31 | 18.7 ± 1.27 | 183 to 184 | > 50 | – |
| COc1cc(N(Cc2nc(C)c3ccccc3n2)S(=O)(=O)c2ccc(C)cc2)cc(OC)c1OC [Compound 10e, 4-Methyl-N-((4-methylquinazolin-2-yl)methyl)-N-(3,4,5-trimethoxyphenyl) benzene-sulfonamide] | 4.01 ± 0.07 | 1.68 ± 0.12 | 2.48 ± 0.12 | 182 to 183 | 1.04 | 1 ± 0.08 |
| COc1cc(N(Cc2nc(C)c3ccccc3n2)S(=O)(=O)c2c(C)cc(C)cc2C)cc(OC)c1OC [Compound 10f, 2,4,6-Trimethyl-N-((4-methylquinazolin-2-yl)methyl)-N-(3,4,5-trimethoxyphenyl) benzene-sulfonamide] | > 50 | > 50 | > 50 | 154 to 155 | > 50 | – |
| COc1cc(N(Cc2nc(C)c3ccccc3n2)S(=O)(=O)c2ccc(C(C)(C)C)cc2)cc(OC)c1OC [Compound 10g, 4-(Tert-butyl)-N-((4-methylquinazolin-2-yl)methyl)-N-(3,4,5-trimethoxyphenyl) benzene-sulfonamide] | 18.9 ± 1.57 | 28.1 ± 1.82 | 22.4 ± 1.67 | 144 to 145 | 12.8 ± 1.38 | – |
| COc1ccc(S(=O)(=O)N(Cc2nc(C)c3ccccc3n2)c2cc(OC)c(OC)c(OC)c2)cc1OC [Compound 10h, 3,4-Dimethoxy-N-((4-methylquinazolin-2-yl)methyl)-N-(3,4,5-trimethoxyphenyl)benzene-sulfonamide] | 36.6 ± 0.34 | 18.5 ± 0.81 | 22.9 ± 1.34 | 129 to 130 | 14.2 ± 1.03 | – |
| COc1cc(N(Cc2nc(C)c3ccccc3n2)S(=O)(=O)c2cccs2)cc(OC)c1OC [Compound 10i, N-((4-Methylquinazolin-2-yl)methyl)-N-(3,4,5-trimethoxyphenyl)thiophene-2-sulphonamide] | 27.8 ± 2.02 | 30.2 ± 1.81 | 20.4 ± 1.92 | 151 to 152 | 16.8 ± 1.42 | – |
| COc1cc(N(Cc2nc(C)c3ccccc3n2)S(=O)(=O)c2ccccn2)cc(OC)c1OC [Compound 10j, N-((4-Methylquinazolin-2-yl)methyl)-N-(3,4,5-trimethoxyphenyl)pyridine-2-sulphonamide] | 28.2 ± 1.98 | 34.2 ± 1.83 | 24.8 ± 2.13 | 159 to 160 | 14.7 ± 1.88 | – |
| COc1cc(N(Cc2nc(C)c3ccccc3n2)C(=O)c2ccc(C)cc2)cc(OC)c1OC [Compound 11e, 4-Methyl-N-((4-methylquinazolin-2-yl)methyl)-N-(3,4,5-trimethoxyphenyl) benzamide] | 24.9 ± 1.41 | 18.6 ± 1.32 | – | 196 to 197 | 10.8 ± 1.18 | – |
| COc1ccc(C(=O)N(Cc2nc(C)c3ccccc3n2)c2cc(OC)c(OC)c(OC)c2)cc1 [Compound 11h, 4-Methoxy-N-((4-methylquinazolin-2-yl)methyl)-N-(3,4,5-trimethoxyphenyl) benzamide] | 18.7 ± 1.38 | 22.4 ± 1.54 | 10.4 ± 1.04 | – | 5.82 ± 1.17 | – |
